Key:
Format in all cases: biochemical
EPHB4 = target: T1, EPHB4 (Homo sapiens, UniProt P54760); assay: Kinase inhibition assay (33P transfer), EPHB4; settings: for IC50: read-out: EPHB4-1
T1 construct: Kinases are expressed as either kinase domains or full length constructs; made in house
T1 sequence (P54760 16-987): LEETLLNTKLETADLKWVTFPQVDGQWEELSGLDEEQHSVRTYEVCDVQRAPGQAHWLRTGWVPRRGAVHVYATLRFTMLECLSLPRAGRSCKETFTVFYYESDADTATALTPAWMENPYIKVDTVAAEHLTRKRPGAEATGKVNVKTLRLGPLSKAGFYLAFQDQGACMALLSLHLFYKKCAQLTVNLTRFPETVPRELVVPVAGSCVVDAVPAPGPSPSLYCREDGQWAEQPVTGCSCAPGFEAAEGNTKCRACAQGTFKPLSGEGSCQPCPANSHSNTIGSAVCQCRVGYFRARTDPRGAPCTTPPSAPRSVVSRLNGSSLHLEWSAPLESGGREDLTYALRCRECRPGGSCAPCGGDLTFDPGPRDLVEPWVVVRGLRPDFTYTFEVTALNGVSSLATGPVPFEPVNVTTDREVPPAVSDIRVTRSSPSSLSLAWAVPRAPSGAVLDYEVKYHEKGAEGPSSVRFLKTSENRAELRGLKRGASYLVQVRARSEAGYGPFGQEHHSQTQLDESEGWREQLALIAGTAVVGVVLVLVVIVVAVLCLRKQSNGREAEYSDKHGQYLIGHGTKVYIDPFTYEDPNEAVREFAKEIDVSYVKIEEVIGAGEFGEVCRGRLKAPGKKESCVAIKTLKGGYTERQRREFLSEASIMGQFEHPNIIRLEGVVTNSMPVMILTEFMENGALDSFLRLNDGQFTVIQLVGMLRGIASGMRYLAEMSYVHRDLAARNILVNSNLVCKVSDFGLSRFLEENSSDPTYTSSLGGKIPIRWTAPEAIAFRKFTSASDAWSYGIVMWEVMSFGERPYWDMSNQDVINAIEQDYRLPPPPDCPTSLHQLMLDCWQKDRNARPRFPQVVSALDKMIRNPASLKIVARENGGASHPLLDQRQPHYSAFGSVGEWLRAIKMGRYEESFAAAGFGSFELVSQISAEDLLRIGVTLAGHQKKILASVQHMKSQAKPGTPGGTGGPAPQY

Tek = target: T2, Tek (Homo sapiens, UniProt Q02763); assay: Kinase inhibition assay (33P transfer), Tek; settings: read-out: Tek-1
T2 construct: Kinases are expressed as either kinase domains or full length constructs; made in house
Outline: (§1)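 Steps: coat wells with poly(Glu,Tyr) 4:1 or poly(Arg,Ser) 3:1; add purified kinase, [33P]ATP and inhibitor; incubate; wash with 0.5% phosphoric acid; add liquid scintillant; count. IC50 corresponds to half-maximal reduction of bound 33P.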

Lck = target: T3, Lck (Homo sapiens, UniProt P06239); assay: Kinase inhibition assay (33P transfer), Lck; settings: Table 3; for IC50: read-out: Lck-1
T3 construct: Kinases are expressed as either kinase domains or full length constructs; made in house
Outline: (§2)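 Activity was read as 33P incorporation, counted by liquid scintillation after a 0.5% phosphoric acid wash, into poly(Glu,Tyr) 4:1 or poly(Arg,Ser) 3:1 substrates coated on plates. Enzymes were tagged (GST or polyHis) kinase domains or full-length proteins from bacterial or insect-cell expression, sometimes with regulatory polypeptides.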

IGFR-1 = target: T4, IGFR-1 (Homo sapiens, UniProt P08069); assay: Kinase inhibition assay (33P transfer), IGFR-1; settings: Table 2, kinase inhibition class
T4 construct: Kinases are expressed as either kinase domains or full length constructs; made in house

Zap-70 = target: T5, Zap-70 (Homo sapiens, UniProt P43403); assay: Kinase inhibition assay (33P transfer), Zap-70; settings: Table 3; for IC50: read-out: Zap-1
T5 construct: Kinases are expressed as either kinase domains or full length constructs; made in house
T5 sequence (P43403 1-619): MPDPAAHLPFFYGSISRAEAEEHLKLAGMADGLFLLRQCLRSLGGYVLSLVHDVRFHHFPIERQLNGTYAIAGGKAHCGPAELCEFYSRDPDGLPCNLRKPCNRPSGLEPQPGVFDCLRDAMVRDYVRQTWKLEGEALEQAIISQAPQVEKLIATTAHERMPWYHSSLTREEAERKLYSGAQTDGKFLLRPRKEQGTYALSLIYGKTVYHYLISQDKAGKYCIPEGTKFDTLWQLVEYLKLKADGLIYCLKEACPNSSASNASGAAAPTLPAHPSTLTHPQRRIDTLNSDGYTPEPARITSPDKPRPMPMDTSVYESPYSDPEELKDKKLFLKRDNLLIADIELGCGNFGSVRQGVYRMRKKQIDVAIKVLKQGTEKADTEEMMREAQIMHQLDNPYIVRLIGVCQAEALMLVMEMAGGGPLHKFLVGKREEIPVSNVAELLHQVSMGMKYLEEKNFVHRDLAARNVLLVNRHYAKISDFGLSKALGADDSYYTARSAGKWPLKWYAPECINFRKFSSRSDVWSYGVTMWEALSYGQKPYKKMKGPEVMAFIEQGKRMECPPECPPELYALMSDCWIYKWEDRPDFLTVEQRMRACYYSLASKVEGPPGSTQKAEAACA
Outline: as §2

Itk = target: T6, Itk (Homo sapiens, UniProt Q08881); assay: Kinase inhibition assay (33P transfer), Itk; settings: Table 3; for IC50: read-out: Itk-1
T6 construct: Kinases are expressed as either kinase domains or full length constructs; made in house
T6 sequence (Q08881 1-620): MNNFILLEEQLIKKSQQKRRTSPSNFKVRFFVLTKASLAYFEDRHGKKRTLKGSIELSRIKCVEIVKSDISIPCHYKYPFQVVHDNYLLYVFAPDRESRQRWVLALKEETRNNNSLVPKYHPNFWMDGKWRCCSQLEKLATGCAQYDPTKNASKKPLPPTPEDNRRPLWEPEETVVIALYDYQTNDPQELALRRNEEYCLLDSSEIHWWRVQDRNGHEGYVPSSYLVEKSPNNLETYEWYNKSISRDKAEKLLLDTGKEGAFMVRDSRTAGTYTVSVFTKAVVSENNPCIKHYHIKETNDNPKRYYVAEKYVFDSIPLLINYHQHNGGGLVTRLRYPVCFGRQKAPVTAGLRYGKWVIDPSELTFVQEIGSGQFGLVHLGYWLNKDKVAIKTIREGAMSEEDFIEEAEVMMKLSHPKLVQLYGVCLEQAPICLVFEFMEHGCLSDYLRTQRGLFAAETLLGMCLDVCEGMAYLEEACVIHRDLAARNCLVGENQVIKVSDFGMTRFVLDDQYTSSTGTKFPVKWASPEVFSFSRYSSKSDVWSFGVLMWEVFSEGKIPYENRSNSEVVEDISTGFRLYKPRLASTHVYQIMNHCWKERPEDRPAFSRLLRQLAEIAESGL
Outline: as §1

AKT = target: T7, AKT (Homo sapiens, UniProt Q9Y243); assay: Kinase inhibition assay (33P transfer), AKT; settings: Table 2, kinase inhibition class; for IC50: read-out: AKT3-1
T7 construct: Kinases are expressed as either kinase domains or full length constructs; made in house
Outline: as §2

Kdr = target: T8, Kdr (Homo sapiens, UniProt P35968); assay: Kinase inhibition assay (33P transfer), Kdr; settings: Table 3; for IC50: read-out: KDR-1
T8 construct: Kinases are expressed as either kinase domains or full length constructs; made in house
Outline: as §2

c-Met = target: T9, c-Met (Homo sapiens, UniProt P08581); assay: Kinase inhibition assay (33P transfer), c-Met; settings: Table 2, kinase inhibition class; for IC50: read-out: Met-1
T9 construct: Kinases are expressed as either kinase domains or full length constructs; made in house
Outline: as §1

EGFR = target: T10, EGFR (Homo sapiens, UniProt P00533); assay: Kinase inhibition assay (33P transfer), EGFR; settings: Table 2, kinase inhibition class; for IC50: read-out: EGFR-1
T10 construct: Kinases are expressed as either kinase domains or full length constructs; made in house
Outline: as §1

T2 sequence (Q02763 23-1124, species assumed): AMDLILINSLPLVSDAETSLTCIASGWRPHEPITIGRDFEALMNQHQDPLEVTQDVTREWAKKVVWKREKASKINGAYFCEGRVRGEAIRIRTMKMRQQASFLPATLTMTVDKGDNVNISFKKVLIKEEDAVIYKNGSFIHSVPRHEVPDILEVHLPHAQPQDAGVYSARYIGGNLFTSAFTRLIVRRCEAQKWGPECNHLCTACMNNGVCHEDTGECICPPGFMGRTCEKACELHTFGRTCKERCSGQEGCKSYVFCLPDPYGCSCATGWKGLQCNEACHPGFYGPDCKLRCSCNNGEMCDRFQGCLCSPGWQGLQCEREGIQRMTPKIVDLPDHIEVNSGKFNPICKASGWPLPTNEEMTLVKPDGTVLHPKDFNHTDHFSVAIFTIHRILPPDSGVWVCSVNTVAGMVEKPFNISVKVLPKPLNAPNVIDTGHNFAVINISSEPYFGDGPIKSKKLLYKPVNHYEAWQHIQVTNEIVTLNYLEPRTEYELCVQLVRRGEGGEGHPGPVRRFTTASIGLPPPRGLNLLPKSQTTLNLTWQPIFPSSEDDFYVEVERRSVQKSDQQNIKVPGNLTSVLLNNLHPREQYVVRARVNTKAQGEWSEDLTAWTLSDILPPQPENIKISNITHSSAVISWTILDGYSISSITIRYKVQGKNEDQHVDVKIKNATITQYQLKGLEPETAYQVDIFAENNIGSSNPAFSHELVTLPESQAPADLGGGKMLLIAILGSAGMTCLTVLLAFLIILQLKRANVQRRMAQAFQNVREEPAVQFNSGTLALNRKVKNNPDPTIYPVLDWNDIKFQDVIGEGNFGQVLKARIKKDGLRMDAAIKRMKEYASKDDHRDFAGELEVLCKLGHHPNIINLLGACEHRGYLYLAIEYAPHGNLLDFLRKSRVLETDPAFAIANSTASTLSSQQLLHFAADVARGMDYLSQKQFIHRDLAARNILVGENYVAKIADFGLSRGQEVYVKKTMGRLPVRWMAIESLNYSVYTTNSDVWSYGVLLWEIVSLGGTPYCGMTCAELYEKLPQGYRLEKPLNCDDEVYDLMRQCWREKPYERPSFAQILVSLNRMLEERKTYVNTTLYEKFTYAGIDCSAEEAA
T7 sequence (Q9Y243 whole entry, the tested form may be a part): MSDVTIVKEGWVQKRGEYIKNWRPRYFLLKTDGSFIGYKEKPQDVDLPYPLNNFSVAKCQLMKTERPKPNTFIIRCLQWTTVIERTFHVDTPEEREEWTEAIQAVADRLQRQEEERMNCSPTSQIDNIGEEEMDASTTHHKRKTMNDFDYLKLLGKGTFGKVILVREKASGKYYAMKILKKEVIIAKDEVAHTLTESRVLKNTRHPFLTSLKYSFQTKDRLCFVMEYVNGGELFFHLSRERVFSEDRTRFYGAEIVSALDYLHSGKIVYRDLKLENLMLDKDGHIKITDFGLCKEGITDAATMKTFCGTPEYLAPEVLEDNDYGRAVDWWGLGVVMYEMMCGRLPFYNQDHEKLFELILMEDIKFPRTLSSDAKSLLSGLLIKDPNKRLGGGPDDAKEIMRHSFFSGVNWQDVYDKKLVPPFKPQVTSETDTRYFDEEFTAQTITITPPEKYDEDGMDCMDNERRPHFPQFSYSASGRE
T9 sequence (P08581 25-1390): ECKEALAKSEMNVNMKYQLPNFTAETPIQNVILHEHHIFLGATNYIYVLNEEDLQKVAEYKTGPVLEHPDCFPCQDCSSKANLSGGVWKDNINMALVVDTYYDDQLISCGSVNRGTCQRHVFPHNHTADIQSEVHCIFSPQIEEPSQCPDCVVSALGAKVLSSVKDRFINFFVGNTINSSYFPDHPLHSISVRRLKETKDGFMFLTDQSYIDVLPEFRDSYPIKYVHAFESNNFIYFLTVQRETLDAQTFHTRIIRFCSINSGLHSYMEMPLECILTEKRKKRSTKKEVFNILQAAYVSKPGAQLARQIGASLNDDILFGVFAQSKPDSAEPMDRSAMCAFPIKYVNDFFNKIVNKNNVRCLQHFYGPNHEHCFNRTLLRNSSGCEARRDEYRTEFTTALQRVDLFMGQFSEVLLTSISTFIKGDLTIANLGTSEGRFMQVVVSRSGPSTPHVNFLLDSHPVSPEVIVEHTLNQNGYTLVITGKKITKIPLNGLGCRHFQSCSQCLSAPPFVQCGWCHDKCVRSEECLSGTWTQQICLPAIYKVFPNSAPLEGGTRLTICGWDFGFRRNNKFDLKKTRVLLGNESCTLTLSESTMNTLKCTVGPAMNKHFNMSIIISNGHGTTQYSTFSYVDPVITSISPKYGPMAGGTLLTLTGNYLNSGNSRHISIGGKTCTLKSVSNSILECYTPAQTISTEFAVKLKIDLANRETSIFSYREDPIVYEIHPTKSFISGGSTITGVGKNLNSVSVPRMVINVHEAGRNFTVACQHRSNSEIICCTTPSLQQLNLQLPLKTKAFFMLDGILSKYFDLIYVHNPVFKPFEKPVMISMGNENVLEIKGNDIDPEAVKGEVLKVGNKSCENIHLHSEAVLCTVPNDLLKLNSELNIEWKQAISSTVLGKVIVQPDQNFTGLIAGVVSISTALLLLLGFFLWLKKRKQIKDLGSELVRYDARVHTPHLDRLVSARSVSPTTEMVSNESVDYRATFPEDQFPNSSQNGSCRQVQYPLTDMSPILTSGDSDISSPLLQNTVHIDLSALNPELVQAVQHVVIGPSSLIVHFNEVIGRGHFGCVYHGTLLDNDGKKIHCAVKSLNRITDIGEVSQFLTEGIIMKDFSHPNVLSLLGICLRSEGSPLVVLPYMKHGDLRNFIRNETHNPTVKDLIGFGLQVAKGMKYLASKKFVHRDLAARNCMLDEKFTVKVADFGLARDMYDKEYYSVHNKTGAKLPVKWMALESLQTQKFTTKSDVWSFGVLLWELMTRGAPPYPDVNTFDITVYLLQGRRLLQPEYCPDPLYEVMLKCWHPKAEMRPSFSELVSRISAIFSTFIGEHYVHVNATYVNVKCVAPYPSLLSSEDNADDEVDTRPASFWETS
T3 sequence (P06239 whole entry, species assumed, the tested form may be a part): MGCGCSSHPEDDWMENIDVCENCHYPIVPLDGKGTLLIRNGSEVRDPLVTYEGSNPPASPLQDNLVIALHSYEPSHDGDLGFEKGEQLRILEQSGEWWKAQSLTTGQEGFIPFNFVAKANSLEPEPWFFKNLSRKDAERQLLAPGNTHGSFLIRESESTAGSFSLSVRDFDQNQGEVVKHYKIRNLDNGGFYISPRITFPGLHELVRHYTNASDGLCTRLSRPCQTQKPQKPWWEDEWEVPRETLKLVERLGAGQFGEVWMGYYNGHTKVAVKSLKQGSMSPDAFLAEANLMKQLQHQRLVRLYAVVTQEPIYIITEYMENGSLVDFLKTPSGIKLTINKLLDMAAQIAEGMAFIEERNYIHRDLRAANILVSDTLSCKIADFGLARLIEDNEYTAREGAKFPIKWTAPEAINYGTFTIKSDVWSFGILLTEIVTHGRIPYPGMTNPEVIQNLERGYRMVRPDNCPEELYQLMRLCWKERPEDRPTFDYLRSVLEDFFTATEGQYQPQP
T8 sequence (P35968 20-1356, species assumed): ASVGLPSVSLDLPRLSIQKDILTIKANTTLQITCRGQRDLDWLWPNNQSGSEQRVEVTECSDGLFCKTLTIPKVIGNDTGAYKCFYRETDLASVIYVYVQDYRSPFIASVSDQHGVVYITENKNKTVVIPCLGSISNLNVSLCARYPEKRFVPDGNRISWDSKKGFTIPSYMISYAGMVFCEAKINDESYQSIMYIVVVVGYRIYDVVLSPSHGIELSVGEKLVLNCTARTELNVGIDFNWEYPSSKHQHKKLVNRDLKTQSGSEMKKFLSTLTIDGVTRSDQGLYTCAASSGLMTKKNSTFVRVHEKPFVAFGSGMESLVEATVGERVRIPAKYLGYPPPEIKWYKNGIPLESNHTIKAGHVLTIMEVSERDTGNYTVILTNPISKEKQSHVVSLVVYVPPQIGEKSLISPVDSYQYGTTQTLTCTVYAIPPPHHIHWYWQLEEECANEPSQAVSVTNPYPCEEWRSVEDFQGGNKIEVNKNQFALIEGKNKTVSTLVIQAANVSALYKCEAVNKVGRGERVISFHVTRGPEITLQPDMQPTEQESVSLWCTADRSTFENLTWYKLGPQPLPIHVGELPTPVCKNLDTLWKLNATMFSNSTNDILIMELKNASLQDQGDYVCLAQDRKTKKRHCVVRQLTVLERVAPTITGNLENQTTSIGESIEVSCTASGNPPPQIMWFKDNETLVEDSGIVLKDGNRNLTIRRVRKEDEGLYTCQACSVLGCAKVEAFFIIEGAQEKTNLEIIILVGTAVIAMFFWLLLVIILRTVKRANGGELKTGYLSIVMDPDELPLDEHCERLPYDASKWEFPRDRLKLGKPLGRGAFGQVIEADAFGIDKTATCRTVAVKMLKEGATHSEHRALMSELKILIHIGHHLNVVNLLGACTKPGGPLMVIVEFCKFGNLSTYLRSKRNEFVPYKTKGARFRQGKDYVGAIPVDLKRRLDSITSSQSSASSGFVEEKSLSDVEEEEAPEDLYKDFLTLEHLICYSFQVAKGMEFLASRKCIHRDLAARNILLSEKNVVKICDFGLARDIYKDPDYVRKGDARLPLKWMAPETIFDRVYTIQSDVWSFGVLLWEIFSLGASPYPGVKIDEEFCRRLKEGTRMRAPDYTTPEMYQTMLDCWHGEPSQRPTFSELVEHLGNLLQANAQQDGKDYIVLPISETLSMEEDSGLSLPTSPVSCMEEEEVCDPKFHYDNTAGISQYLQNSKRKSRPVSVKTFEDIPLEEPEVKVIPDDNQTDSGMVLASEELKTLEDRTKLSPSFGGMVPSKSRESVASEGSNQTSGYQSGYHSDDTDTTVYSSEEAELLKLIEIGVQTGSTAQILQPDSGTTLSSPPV

IC50 (EPHB4)	IC50 (Tek)	IC50 (Lck)	IC50 (IGFR-1)	IC50 (Zap-70)	IC50 (Itk)	IC50 (AKT)	IC50 (Kdr)	IC50 (c-Met)	IC50 (EGFR)	SMILES	EPHB4-1 (EPHB4)	Lck-1 (Lck)	IGFR-1 (IGFR-1)	Zap-1 (Zap-70)	Itk-1 (Itk)	AKT3-1 (AKT)	KDR-1 (Kdr)	Met-1 (c-Met)	EGFR-1 (EGFR)
> 9.31 µM	0.827 to 4.96 µM	> 9.31 µM	> 9.31 µM	> 9.31 µM	> 9.31 µM	> 9.31 µM	0.827 to 4.96 µM	> 9.31 µM	4.96 to 7.24 µM	COc1cc(Nc2ncnc(N(Cc3ccccc3)c3nc4ccccc4[nH]3)n2)cc(OC)c1OC [Compound 373]									
6.39 to 9.31 µM	> 12 µM	> 12 µM	< 1.06 µM	> 12 µM	> 12 µM	> 12 µM	> 12 µM	> 12 µM	1.06 to 6.39 µM	COc1ccc(Nc2ncnc(Nc3ccc(F)c(Cl)c3)n2)cc1OC [Compound 113]									
0.931 to 5.59 µM	> 10.5 µM	> 10.5 µM	5.59 to 8.15 µM	0.931 to 5.59 µM	> 10.5 µM	5.59 to 8.15 µM	0.931 to 5.59 µM	> 10.5 µM	8.15 to 10.5 µM	COc1cc(Nc2ncnc(Nc3ccc(-c4ccccc4)cc3)n2)cc(OC)c1OC [Compound 100]									
1.06 to 6.36 µM	> 11.9 µM	6.36 to 9.27 µM	1.06 to 6.36 µM	6.36 to 9.27 µM	> 11.9 µM	> 11.9 µM	> 11.9 µM	> 11.9 µM	> 11.9 µM	COC(=O)c1ccc(Nc2ncnc(Nc3cc(-c4ccco4)n[nH]3)n2)cc1 [Compound 366]									
> 14 µM	> 14 µM	> 14 µM	> 14 µM	> 14 µM	> 14 µM	> 14 µM	> 14 µM	> 14 µM	> 14 µM	COCCOc1ccc(Nc2ncnc(-c3ccccc3)n2)cc1 [Compound 155]									
6 to 8.76 µM		> 11.3 µM	8.76 to 11.3 µM	> 11.3 µM	> 11.3 µM	> 11.3 µM	> 11.3 µM	> 11.3 µM	> 11.3 µM	FC(F)C(F)(F)Oc1cccc(Nc2ncnc(-c3ccnc(Cl)c3)n2)c1 [Compound 330]									
0.809 to 4.85 µM		7.08 to 9.1 µM	> 9.1 µM	> 9.1 µM	> 9.1 µM	> 9.1 µM	4.85 to 7.08 µM	7.08 to 9.1 µM	> 9.1 µM	COc1cc(Nc2ncnc(-n3c(Nc4ccc(C#N)cc4)nc4ccccc43)n2)cc(OC)c1OC [Compound 381]									
6.1 to 8.9 µM		1.02 to 6.1 µM	< 1.02 µM	> 11.4 µM	> 11.4 µM	> 11.4 µM	1.02 to 6.1 µM	1.02 to 6.1 µM	1.02 to 6.1 µM	COc1cc(C)c(Nc2ncnc(Nc3cc(-c4ccco4)n[nH]3)n2)cc1OC [Compound 338]									
1.14 to 6.81 µM		> 12.8 µM	< 1.14 µM	> 12.8 µM	> 12.8 µM	> 12.8 µM	1.14 to 6.81 µM	> 12.8 µM	> 12.8 µM	COc1cc(Nc2ncnc(-c3ccc(C)cc3)n2)cc(OC)c1OC [Compound 221]									
> 9.79 µM		> 9.79 µM	> 9.79 µM	> 9.79 µM	> 9.79 µM	> 9.79 µM	> 9.79 µM	> 9.79 µM	> 9.79 µM	COc1cc(Nc2ncnc(Nc3cccc(OCc4ccccc4)c3)n2)cc(OC)c1OC [Compound 73]									
> 9.6 µM		0.854 to 5.12 µM	> 9.6 µM	> 9.6 µM	> 9.6 µM	> 9.6 µM	0.854 to 5.12 µM	> 9.6 µM	> 9.6 µM	COc1cc(Nc2ncnc(Nc3ccc(NC(=O)OC(C)(C)C)cc3)n2)cc(OC)c1OC [Compound 69]									
0.919 to 5.51 µM		> 10.3 µM	0.919 to 5.51 µM	> 10.3 µM	> 10.3 µM	> 10.3 µM	0.919 to 5.51 µM	8.04 to 10.3 µM	> 10.3 µM	COC(=O)c1cc(Nc2ncnc(Nc3cc(-c4ccco4)n[nH]3)n2)cc(C(=O)OC)c1 [Compound 343]									
0.994 to 5.96 µM		8.7 to 11.2 µM	5.96 to 8.7 µM	> 11.2 µM	> 11.2 µM	> 11.2 µM	0.994 to 5.96 µM	5.96 to 8.7 µM	> 11.2 µM	COc1cc(Nc2ncnc(-n3cc(C#N)c4ccccc43)n2)cc(OC)c1OC [Compound 332]									
> 12.7 µM		> 12.7 µM	> 12.7 µM	> 12.7 µM	> 12.7 µM	> 12.7 µM	> 12.7 µM	> 12.7 µM	> 12.7 µM	COc1cc(Nc2ncnc(Nc3ccccn3)n2)cc(OC)c1OC [Compound 40]									
										COc1cc(NC(=O)Nc2ncnc(-c3ccncc3)n2)cc(OC)c1OC [Compound 1118]	E (E>4.5 ug/mL)	E (E>4.5 ug/mL)	E (E>4.5 ug/mL)	E (E>4.5 ug/mL)	E (E>4.5 ug/mL)	E (E>4.5 ug/mL)	E (E>4.5 ug/mL)	E (E>4.5 ug/mL)	B (B>0.4 and <2.4 ug/mL)
> 12.7 µM		> 12.7 µM	> 12.7 µM	> 12.7 µM	> 12.7 µM	> 12.7 µM	> 12.7 µM	> 12.7 µM	> 12.7 µM	COc1cc(Nc2ncnc(Nc3ccncc3)n2)cc(OC)c1OC [Compound 39]									
